Experimental data reported in ChEMBL document CHEMBL3045052, “Effect of the lipophilic parameter (log P) on the anti-parasitic activity of imidazo[1,2-a]pyridine derivatives” (Med Chem Res, 2012).
Converted amounts (≈) assume the structure as drawn.

What was measured:
[1] = Partition coefficient, log P of compound at 2:1 1-octanol/water volume ratio by spectrophotometer; format: physicochemical
[2] = test system: Trichomonas vaginalis; assay: Antiparasitic activity against Trichomonas vaginalis GT3 after 48 hr by Alamar blue assay; format: functional, organism-based; settings: GT3, 48 h
[3] = Partition coefficient, log P of compound at 1:2 1-octanol/water volume ratio by spectrophotometer; format: physicochemical
[4] = Partition coefficient, log P of compound at 1:1 1-octanol/water volume ratio by spectrophotometer; format: physicochemical
[5] = test system: Trichomonas vaginalis; assay: Antiparasitic activity against Trichomonas vaginalis GT3 after 24 hr by Alamar blue assay; format: functional; settings: GT3, 24 h

logP [1]	MIC [2]	logP [3]	logP [4]	MIC [5]	SMILES	EC50 [2]
0.922	3.07 µM (≈ 0.501 µg/mL)	0.96	0.938	3.01 µM (≈ 0.491 µg/mL)	O=[N+]([O-])c1cnc2ccccn12	2.45 µM
0.963	2.13 µM (≈ 0.501 µg/mL)	1.04	0.983	2.13 µM (≈ 0.501 µg/mL)	CCOC(=O)c1nc2ccccn2c1[N+](=O)[O-]	3.96 µM
-0.038	19.3 µM (≈ 4 µg/mL)	-0.042	-0.041	19.3 µM (≈ 4 µg/mL)	O=C(O)c1nc2ccccn2c1[N+](=O)[O-]	21.1 µM
1.3	4.02 µM (≈ 1 µg/mL)	1.2	1.27	4.02 µM (≈ 1 µg/mL)	CCOC(=O)c1nc2cccc(C)n2c1[N+](=O)[O-]	9.11 µM
-0.54	9.71 µM (≈ 2 µg/mL)	-0.569	-0.515	9.71 µM (≈ 2 µg/mL)	NC(=O)c1nc2ccccn2c1[N+](=O)[O-]	41.3 µM
0.695	9.09 µM (≈ 2 µg/mL)	0.69	0.67	9.09 µM (≈ 2 µg/mL)	Cc1cccc2nc(C(N)=O)c([N+](=O)[O-])n12	14.6 µM
1.5	30.8 µM (≈ 8.02 µg/mL)	1.5	1.54	61.5 µM (≈ 16 µg/mL)	O=[N+]([O-])c1c(NC2CCCCC2)nc2ccccn12	61.5 µM
0.692	2.66 µM (≈ 0.5 µg/mL)	0.641	0.691	5.32 µM (≈ 1 µg/mL)	N#Cc1nc2ccccn2c1[N+](=O)[O-]	9.68 µM
1.08	2.48 µM (≈ 0.501 µg/mL)	1.12	1.19	4.95 µM (≈ 1 µg/mL)	Cc1cccc2nc(C#N)c([N+](=O)[O-])n12	12.1 µM
1.5	29.2 µM (≈ 8.01 µg/mL)	1.5	1.56	58.4 µM (≈ 16 µg/mL)	Cc1cccc2nc(NC3CCCCC3)c([N+](=O)[O-])n12	64.3 µM
0.115	2.92 µM (≈ 0.5 µg/mL)	0.11	0.12	2.92 µM (≈ 0.5 µg/mL)	Cc1ncc([N+](=O)[O-])n1CCO [METRONIDAZOLE]	1.2 µM
